From patent US9527885B2, “Hepatitis C virus inhibitors” (BRISTOL-MYERS SQUIBB COMPANY, priority 2011, dated 2016) come the findings set out here.

For experiment [1], the system named is HCV genotype 1a (H77 strain) replicon in HUH-7 cells. The experiment can be described thus: HCV replicon luciferase reporter assay, genotype 1a. In kind it is cell-based. The conditions noted are these: Hepatitis C virus, Huh-7, 72 h, HCV genotype 1a replicon luciferase, 3 days incubation, read-out: LE_1a (EC50, range). Put shortly: (§1)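 Twenty-point, threefold compound titrations (0.5% DMSO) were incubated 3 days at 37 °C with 3.0×10^3 HUH-7 cells/well in 4% FCS. The cells stably carried luciferase replicons: genotype 1b Con1 (S1179I) or 1a H77 (NS3 P1496L, NS5A S2204I). Renilla signal was read after 2 h with 7.5 μM EnduRen, and EC50 was taken from a four-parameter logistic fit. Cytotoxicity (CC50) was measured by Cell Titer-Blue, 8 h.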
In general terms: In antiviral work, replicon cells carry a viral genome segment that copies itself.

Experiment [2] relates to HCV genotype 1b (Con1) replicon in HUH-7 cells. As to the kind of experiment: HCV replicon luciferase reporter assay, genotype 1b. In kind it is cell-based. The following applies: Hepatitis C virus, 72 h, HCV genotype 1b replicon luciferase, 3 days incubation, read-out: LE_1b (EC50, range). In a few lines: as §1

For orientation: EC50 means the concentration giving half of the maximal effect.

SMILES strings stand for the structures. Where two headings read alike, the source gives them in different places.

Take `[2H]C([2H])([2H])C(OC(=O)N[C@@H]1C(=O)N2C[C@H](Oc3nccc4cc(OC)ccc34)C[C@H]2C(=O)N[C@]2(C(=O)NS(=O)(=O)C3(C)CC3)C[C@H]2/C=C\CC[C@@H](C)C[C@H]1C)(C([2H])([2H])[2H])C(F)(F)F` [Compound 5175, 1,1,1,3,3,3-hexadeutero-2-(trifluoromethyl)propan-2-yl ((2R,6S,7R,9R,13aS,14aR,16aS,Z)-2-((6-methoxyisoquinolin-1-yl)oxy)-7,9-dimethyl-14a-(((1-methylcyclopropyl)sulfonyl)carbamoyl)-5,16-dioxo-1,2,3,5,6,7,8,9,10,11,13a,14,14a,15,16,16a-hexadecahydrocyclopropa[e]pyrrolo[1,2-a][1,4]diazacyclopentadecin-6-yl)carbamate]: the EC50 in experiment [1] (range class) and in experiment [2] (range class) was under 5.46 nM throughout.
As for `COc1ccc2c(O[C@@H]3C[C@H]4C(=O)N[C@]5(C(=O)NS(=O)(=O)C6CC6)C[C@H]5/C=C\CC[C@H](C)C[C@@H](C)[C@H](NC(=O)O[C@@H]5C[C@@H]6C[C@@H]6C5)C(=O)N4C3)nc(-c3ccc(OC(C)C)nc3)cc2c1` [Compound 5218, (1R,3r,5S)-bicyclo[3.1.0]hexan-3-yl ((2R,6S,7R,9S,13aS,14aR,16aS,Z)-14a-((cyclopropylsulfonyl)carbamoyl)-2-((3-(6-isopropoxypyridin-3-yl)-6-methoxyisoquinolin-1-yl)oxy)-7,9-dimethyl-5,16-dioxo-1,2,3,5,6,7,8,9,10,11,13a,14,14a,15,16,16a-hexadecahydrocyclopropa[e]pyrrolo[1,2-a][1,4]diazacyclopentadecin-6-yl)carbamate], the EC50 in experiment [1] (range class) and in experiment [2] (range class) was under 5.46 nM each time.
In the case of `CCOc1ccc2c(O[C@@H]3C[C@H]4C(=O)N[C@]5(C(=O)NS(=O)(=O)C6CC6)C[C@H]5/C=C\CC[C@@H](C)C[C@@H](C)[C@H](NC(=O)O[C@@H]5C[C@@H]6C[C@@H]6C5)C(=O)N4C3)nccc2c1` [Compound 5132, (1R,3r,5S)-bicyclo[3.1.0]hexan-3-yl ((2R,6S,7R,9R,13aS,14aR,16aS,Z)-14a-((cyclopropylsulfonyl)carbamoyl)-2-((6-ethoxyisoquinolin-1-yl)oxy)-7,9-dimethyl-5,16-dioxo-1,2,3,5,6,7,8,9,10,11,13a,14,14a,15,16,16a-hexadecahydrocyclopropa[e]pyrrolo[1,2-a][1,4]diazacyclopentadecin-6-yl)carbamate], the EC50 in experiment [1] (class symbols) and in experiment [2] (class symbols) was under 5.46 nM in each case.
On to `C[C@@H]1CC/C=C\[C@@H]2C[C@@]2(C(=O)NS(=O)(=O)C2CC2)NC(=O)[C@@H]2C[C@@H](Oc3ncc(OC(F)F)c4c(Cl)cccc34)CN2C(=O)[C@@H](NC(=O)OC(C)(C)C(F)(F)F)[C@H](C)C1` [Compound 4031, 1,1,1-trifluoro-2-methylpropan-2-yl (2R,6S,7R,9R,13aS,14aR,16aS,Z)-2-(5-chloro-4-(difluoromethoxy)isoquinolin-1-yloxy)-14a-(cyclopropylsulfonylcarbamoyl)-7,9-dimethyl-5,16-dioxo-1,2,3,5,6,7,8,9,10,11,13a,14,14a,15,16,16a-hexadecahydrocyclopropa[e]pyrrolo[1,2-a][1,4]diazacyclopentadecin-6-ylcarbamate], for which the concentration for a half-maximal effect (EC50) in experiment [1] (class symbols) and in experiment [2] (class symbols) was under 5.46 nM in each case.
On to `CC[C@@H]1C[C@H](C)CC/C=C\[C@@H]2C[C@@]2(C(=O)NS(=O)(=O)C2CC2)NC(=O)[C@@H]2C[C@@H](Oc3cnc4ccc(OC)cc4n3)CN2C(=O)[C@H]1NC(=O)OC(C)(C)C(F)(F)F` [Compound 4194, 1,1,1-trifluoro-2-methylpropan-2-yl (2R,6S,7R,9R,13aS,14aR,16aS,Z)-14a-(cyclopropylsulfonylcarbamoyl)-7-ethyl-2-(7-methoxyquinoxalin-2-yloxy)-9-methyl-5,16-dioxo-1,2,3,5,6,7,8,9,10,11,13a,14,14a,15,16,16a-hexadecahydrocyclopropa[e]pyrrolo[1,2-a][1,4]diazacyclopentadecin-6-ylcarbamate], for which the EC50 in experiment [1] (class symbols) and in experiment [2] (class symbols) was under 5.46 nM each time.
Regarding `CCOc1ccc2c(O[C@@H]3C[C@H]4C(=O)N[C@]5(C(=O)NS(=O)(=O)C6CC6)C[C@H]5/C=C\CC[C@H](C)C[C@@H](C)[C@H](NC(=O)O[C@@H]5C[C@@H]6C[C@@H]6C5)C(=O)N4C3)nccc2c1` [Compound 5131, (1R,3r,5S)-bicyclo[3.1.0]hexan-3-yl ((2R,6S,7R,9S,13aS,14aR,16aS,Z)-14a-((cyclopropylsulfonyl)carbamoyl)-2-((6-ethoxyisoquinolin-1-yl)oxy)-7,9-dimethyl-5,16-dioxo-1,2,3,5,6,7,8,9,10,11,13a,14,14a,15,16,16a-hexadecahydrocyclopropa[e]pyrrolo[1,2-a][1,4]diazacyclopentadecin-6-yl)carbamate], the concentration for a half-maximal effect (EC50) in experiment [1] (class symbols) and in experiment [2] (class symbols) was under 5.46 nM each time.
As for `[2H]C([2H])([2H])C(OC(=O)N[C@@H]1C(=O)N2C[C@H](Oc3nccc4cc(OC)ccc34)C[C@H]2C(=O)N[C@]2(C(=O)NS(=O)(=O)C3(C)CC3)C[C@H]2/C=C\CC[C@H](C)C[C@H]1C)(C([2H])([2H])[2H])C(F)(F)F` [Compound 5174, 1,1,1,3,3,3-hexadeutero-2-(trifluoromethyl)propan-2-yl ((2R,6S,7R,9S,13aS,14aR,16aS,Z)-2-((6-methoxyisoquinolin-1-yl)oxy)-7,9-dimethyl-14a-(((1-methylcyclopropyl)sulfonyl)carbamoyl)-5,16-dioxo-1,2,3,5,6,7,8,9,10,11,13a,14,14a,15,16,16a-hexadecahydrocyclopropa[e]pyrrolo[1,2-a][1,4]diazacyclopentadecin-6-yl)carbamate], the EC50 in experiment [1] (range class) and in experiment [2] (range class) was under 5.46 nM throughout.
As to `C[C@@H]1CC/C=C\[C@@H]2C[C@@]2(C(=O)NS(=O)(=O)C2(CF)CC2)NC(=O)[C@@H]2C[C@@H](Oc3nc4c(c5ccccc35)OCCC4)CN2C(=O)[C@@H](NC(=O)OC(C)(C)C(C)(F)F)[C@H](C)C1` [Compound 6032, 3,3-difluoro-2-methylbutan-2-yl ((2R,6S,7R,9R,13aS,14aR,16aS,Z)-2-((3,4-dihydro-2H-pyrano[3,2-c]isoquinolin-6-yl)oxy)-14a-(((1-(fluoromethyl)cyclopropyl)sulfonyl)carbamoyl)-7,9-dimethyl-5,16-dioxo-1,2,3,5,6,7,8,9,10,11,13a,14,14a,15,16,16a-hexadecahydrocyclopropa[e]pyrrolo[1,2-a][1,4]diazacyclopentadecin-6-yl)carbamate], the EC50 in experiment [1] (range class) and in experiment [2] (range class) was under 5.46 nM throughout.
Consider `CC[C@@H]1C[C@H](C)CC/C=C\[C@@H]2C[C@@]2(C(=O)NS(=O)(=O)C2(CF)CC2)NC(=O)[C@@H]2C[C@@H](Oc3nccc4c5c(ccc34)N(C)CCO5)CN2C(=O)[C@H]1NC(=O)OC(C)(C)C(C)(F)F` [Compound 5324, 3,3-difluoro-2-methylbutan-2-yl ((2R,6S,7R,9R,13aS,14aR,16aS,Z)-7-ethyl-14a-(((1-(fluoromethyl)cyclopropyl)sulfonyl)carbamoyl)-9-methyl-2-((4-methyl-3,4-dihydro-2H-[1,4]oxazino[2,3-f]isoquinolin-7-yl)oxy)-5,16-dioxo-1,2,3,5,6,7,8,9,10,11,13a,14,14a,15,16,16a-hexadecahydrocyclopropa[e]pyrrolo[1,2-a][1,4]diazacyclopentadecin-6-yl)carbamate], for which the EC50 in experiment [1] (range class) and in experiment [2] (range class) was under 5.46 nM in each case.
